Reference: US7205315B2, “Bicyclic imino acid derivatives as inhibitors of matrix metalloproteinases” (Sanofi-Aventis Deutschland GmbH, priority 2003, dated 2007)
Where a name gives a salt, the structure may show the parent alone.

Assays:
Type in all cases: biochemical
Conditions in all cases: APMA-activated proenzyme, fluorescence 328/393 nm
[1] = target: T1, catalytic domain of human collagenase-1 (MMP-1) (Homo sapiens, UniProt P03956); test: Enzyme activity of the catalytic domain of human collagenase-1 (MMP-1), fluorogenic substrate
T1 construct: enzyme activity of the catalytic domain of human collagenase-1 (MMP-1); purchased Biocol, Potsdam MMP1
T1 sequence (P03956 100-269 limits assumed): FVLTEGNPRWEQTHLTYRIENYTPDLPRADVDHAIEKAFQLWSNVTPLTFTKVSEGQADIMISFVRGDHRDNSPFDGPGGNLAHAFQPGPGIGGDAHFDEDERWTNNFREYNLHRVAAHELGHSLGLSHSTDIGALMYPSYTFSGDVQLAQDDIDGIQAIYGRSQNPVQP
Experimental: a) Determining the enzyme activity of the catalytic domain of human collagenase-1 (MMP-1).
(§1) Activation of the proenzyme:
2 parts by volume of proenzyme are incubated, at 37° C. for 1 hour, with 1 part by volume of APMA solution. The APMA solution is prepared from a 10 mmol/l solution of p-aminophenylmercuric acetate in 0.1 mmol/l NaOH by diluting with 3 parts by volume of tris/HCl buffer, pH 7.5 (see below). The pH is adjusted to between 7.0 and 7.5 by adding 1 mmol/l HCl. After the enzyme has been activated, it is diluted with the tris/HCl buffer to a concentration of 2.5 μg/ml.
(§2) In order to measure the enzyme activity, 10 μl of enzyme solution are incubated for 15 minutes with 10 μl of a 3% (v/v) buffered solution of dimethyl sulfoxide (reaction 1). In order to measure the enzyme inhibitor activity, 10 μl of enzyme solution are incubated with 10 μl of a 3% (v/v) buffered solution of dimethyl sulfoxide which contains the enzyme inhibitor (reaction 2).
Both in the case of reaction 1 and in the case of reaction 2, the enzyme reaction is monitored by fluorescence spectroscopy (328 nm (extinction)/393 nm (emission)) after adding 10 μl of a 3% (v/v) aqueous solution of dimethyl sulfoxide which contains 0.3 mmol of the substrate/l.
The enzyme activity is presented as increase in extinction/minute.
The inhibitory effect is calculated as percentage inhibition using the following formula: % inhibition=100−[(increase in extinction/minute in reaction 2)/(increase in extinction/minute in reaction 1)×100].
The IC50, i.e. the inhibitor concentration which is required for 50% inhibition of the enzyme activity, is determined graphically by plotting the percentage inhibitions at different inhibitor concentrations. The buffer solution contains 0.05% Brij (Sigma, Deisenhofen, Germany) and also 0.1 mol of tris/HCl/l, 0.1 mol of NaCl/l, 0.01 mol of CaCl2/l (pH=7.5).
The enzyme solution contains 2.5 μg of the enzyme domain/ml.
The substrate solution contains 0.3 mmol of the fluorogenic substrate (7-methoxycoumarin-4-yl)acetyl-Pro-Leu-Gly-Leu-3-(2′,4′-dinitrophenyl)-L-2,3-diaminopropionyl-Ala-Arg-NH2/l (Bachem, Heidelberg, Germany).

[2] = target: T2, catalytic domain of human gelatinase A (MMP-2) (Homo sapiens, UniProt P08253); test: Enzyme activity of the catalytic domain of human gelatinase A (MMP-2), fluorogenic substrate
T2 construct: enzyme activity of the catalytic domain of human gelatinase A (MMP-2); purchased INVITEK, Berlin 30 100 602
T2 sequence (P08253 110-465 limits assumed): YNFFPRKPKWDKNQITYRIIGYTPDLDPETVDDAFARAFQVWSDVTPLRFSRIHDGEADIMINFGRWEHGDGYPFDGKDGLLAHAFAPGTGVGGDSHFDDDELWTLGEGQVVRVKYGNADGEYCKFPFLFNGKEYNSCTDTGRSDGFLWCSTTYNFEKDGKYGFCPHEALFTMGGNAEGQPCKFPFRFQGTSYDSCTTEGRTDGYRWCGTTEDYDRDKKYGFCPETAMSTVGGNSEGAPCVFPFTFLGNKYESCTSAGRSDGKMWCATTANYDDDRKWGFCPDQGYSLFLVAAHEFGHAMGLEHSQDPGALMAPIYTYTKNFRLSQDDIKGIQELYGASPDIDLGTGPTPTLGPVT
Experimental: d) Determining the enzyme activity of the catalytic domain of human gelatinase A (MMP-2). […] Activation of the proenzyme:
(§3) 2 parts by volume of proenzyme were incubated, at 37° C. for 0.5 hour, with 1 part by volume of APMA solution. The APMA solution was prepared from a 10 mmol/l solution of p-aminophenylmercuric acetate in 0.1 mmol/l NaOH by diluting it with 3 parts by volume of tris/HCl buffer, pH 7.5 (see below). The pH was adjusted to between 7.0 and 7.5 by adding 1 mmol/l HCl. After the enzyme had been activated, it was diluted with the tris/HCl buffer to a concentration of 0.83 μg/ml.
as §2, with “were” for “are”, “contained” for “contains”
Both in the case of reaction 1 and in the case of reaction 2, the enzyme reaction was monitored by fluorescence spectroscopy (328 nm (extinction)/393 nm (emission)) after 10 μl of a 3% (v/v) aqueous solution of dimethyl sulfoxide which contained 0.3 mmol of the substrate/1 had been added.
(§4) The enzyme activity was presented as increase in extinction/minute.
The effect of the inhibitor was calculated as percentage inhibition in accordance with the following formula: % inhibition=100−[(increase in extinction/minute in reaction 2)/(increase in extinction/minute in reaction 1)×100].
(§5) The IC50, that is the concentration of inhibitor which is required for 50% inhibition of the enzyme activity, was determined graphically by plotting the percentage inhibitions at different inhibitor concentrations.
The buffer solution contained 0.05% Brij (Sigma, Deisenhofen, Germany) and also 0.1 mol of tris/HCl/l, 0.1 mol of NaCl/l, 0.01 mol of CaCl2/l (pH=7.5). The enzyme solution contained 0.83 μg of the enzyme domain/ml. The substrate solution contained 0.3 mmol of the fluorogenic substrate (7-methoxycoumarin-4-yl)acetyl-Pro-Leu-Gly-Leu-3-(2′,4′-dinitrophenyl)-L-2,3-diaminopropionyl-Ala-Arg-NH2/l (Bachem, Heidelberg, Germany).

[3] = target: T3, catalytic domain of human collagenase-3 (MMP-13) (Homo sapiens, UniProt P45452); test: Enzyme activity of the catalytic domain of human collagenase-3 (MMP-13), fluorogenic substrate
T3 construct: enzyme activity of the catalytic domain of human collagenase-3 (MMP-13); purchased INVITEK, Berlin 30 100 803
Experimental: c) Determining the enzyme activity of the catalytic domain of human collagenase-3 (MMP-13).
as §1
as §3, with “for 1.5 hours,” for “for 0.5 hour,”, “diluting the solution” for “diluting it”, “of 1.67” for “of 0.83”
as §2, with “were” for “are”, “contained” for “contains”
Both in the case of reaction 1 and in the case of reaction 2, the enzyme reaction was monitored by fluorescence spectroscopy (328 nm (extinction)/393 nm (emission)) after 10 μl of a 3% (v/v) aqueous solution of dimethyl sulfoxide which contained 0.075 mmol of the substrate/1 had been added.
as §4
The effect of the inhibitor was calculated as a percentage inhibition in accordance with the following formula: % inhibition=100−[(increase in extinction/minute in reaction 2)/(increase in extinction/minute in reaction 1)×100].
as §5
The buffer solution contained 0.05% Brij (Sigma, Deisenhofen, Germany) and also 0.1 mol of tris/HCl/l, 0.1 mol of NaCl/l, 0.01 mol of CaCl2/l (pH=7.5). The enzyme solution contained 1.67 μg of the enzyme domain/ml. The substrate solution contained 0.075 mmol of the fluorogenic substrate (7-methoxycoumarin-4-yl)acetyl-Pro-Leu-Gly-Leu-3-(2′,4′-dinitrophenyl)-L-2,3-diaminopropionyl-Ala-Arg-NH2/1 (Bachem, Heidelberg, Germany).

Row | SMILES | IC50 [1] [nM] | IC50 [2] [nM] | IC50 [3] [nM]
1 | O=C(NO)C1C2CCCCC2CCN1S(=O)(=O)c1ccc(-c2ccc(OC(F)(F)F)cc2)cc1 (stereo not drawn) [Example 19, 2-(4′-trifluoromethoxybiphenyl-4-sulfonyl)decahydroisoquinoline-1-(N-hydroxy)carboxamide] | 2100 | 3 | 3
2 | O=C(NO)[C@@H]1[C@@H]2CCCC[C@@H]2CCN1S(=O)(=O)c1ccc(-c2ccc(Cl)cc2)cc1 (single isomer, unassigned) [Example 15, 2-(4′-chlorobiphenyl-4-sulfonyl)decahydroisoquinoline-1-(N-hydroxy)-carboxamide] | 6000 | 2300 | 2300
3 | O=C(NO)C1C2CCCCC2CCN1S(=O)(=O)c1ccc(Oc2ccc(F)cc2)cc1 (stereo not drawn) [Example 20, 2-[4-(4-fluorophenoxy)benzenesulfonyl]decahydroisoquinoline-1-(N-hydroxy)carboxamide] | 41 | 2 | 2
4 | O=C(NO)C1C2CCCCC2CCN1S(=O)(=O)c1ccc(Oc2ccc(OCC(F)(F)F)cc2)cc1 (stereo not drawn) [Example 13, 2-{4-[4-(2,2,2-trifluoroethoxy)phenoxy]benzenesulfonyl}decahydroisoquinoline-1-(N-hydroxy)carboxamide] | 180 | 2.6 | 2
5 | O=C(NO)C1C2CCCCC2CCN1S(=O)(=O)CCc1ccc(-c2ccc(Cl)cc2)cc1 (stereo not drawn) [Example 7, 2-[2-(4′-chlorobiphenyl-4-yl)ethanesulfonyl]decahydroisoquinoline-1-(N-hydroxy)carboxamide] | 600 | 4 | 7
6 | O=C(NO)C1C2CCCCC2CCN1S(=O)(=O)c1ccc(Oc2ccccc2)nc1 (stereo not drawn) [Example 5, 2-(6-phenoxypyridine-3-sulfonyl)decahydroisoquinoline-1-(N-hydroxy)-carboxamide trifluoroacetate] | 70 | 2 | 1.8

Continued, values first:

Row | IC50 [1] [nM] | IC50 [2] [nM] | IC50 [3] [nM] | SMILES
7 | 450 | 8 | 3 | N#Cc1ccc(Oc2ccc(S(=O)(=O)N3CCC4CCCCC4C3C(=O)NO)cc2)cc1 (stereo not drawn) [Example 26, 2-[4-(4-cyanophenoxy)benzenesulfonyl]decahydroisoquinoline-1-(N-hydroxy)carboxamide]
8 | 290 | 2 | 2.1 | O=C(NO)C1C2CCCCC2CCN1S(=O)(=O)c1ccc(Oc2ccc(OC(F)(F)F)cc2)cc1 (stereo not drawn) [Example 23, 2-[4-(4-trifluoromethoxyphenoxy)benzenesulfonyl]decahydroisoquinoline-1-(N-hydroxy)carboxamide]
9 | 400 | 2 | 2 | O=C(NO)[C@H]1[C@H]2CCCC[C@H]2CCN1S(=O)(=O)c1ccc(-c2ccc(Cl)cc2)cc1 (single isomer, unassigned) [Example 14, 2-(4′-chlorobiphenyl-4-sulfonyl)decahydroisoquinoline-1-(N-hydroxy)-carboxamide]
10 | 220 | 2 | 1.5 | COc1ccc(Oc2ccc(S(=O)(=O)N3CCC4CCCCC4C3C(=O)NO)cc2)cc1 (stereo not drawn) [Example 11, 2-[4-(4-methoxyphenoxy)benzenesulfonyl]decahydroisoquinoline-1-(N-hydroxy)carboxamide]
11 | 21 | 1.5 | 1.3 | O=C(NO)[C@H]1[C@H]2CCCC[C@H]2CCN1S(=O)(=O)c1ccc(Oc2ccc(F)cc2)cc1 [Example 21, 2-[4-(4-fluorophenoxy)benzenesulfonyl]decahydroisoquinoline-1-(N-hydroxy)carboxamide]
12 | 1000 | 20 | 21 | O=C(NO)C1C2CCCCC2CCN1S(=O)(=O)c1ccc(Oc2ccncc2)cc1 (stereo not drawn) [Example 9, 2-[4-(pyridin-4-yloxy)benzenesulfonyl]decahydroisoquinoline-1-(N-hydroxy)carboxamide trifluoroacetate]
13 | 400 | 30 | 3 | O=C(NO)C1C2CCCCC2CCN1S(=O)(=O)c1ccc(-c2ccc(Cl)cc2)cc1 (stereo not drawn) [Example 3, 2-(4′-chlorobiphenyl-4-sulfonyl)decahydroisoquinoline-1-(N-hydroxy)-carboxamide]
